Measured values from a melting point compilation (Tetko et al.; mined from patent text by program, amines drawn as free bases though some values may be those of a salt).

Row | Compound | melting point [°C]
1 | O=S(Cc1ccc(Cl)cc1)C1CCC(C=CC=Cc2ccc(C(F)(F)F)cc2)CC1 (configuration not stated) | 212 to 214
2 | Cc1cccc(NC(=O)NCC(=O)N(CC(=O)N2CCC3(CCCC3)CC2)c2ccccc2)c1 | 183
3 | CS(=O)(=O)c1cccc(S(N)(=O)=O)c1 | 99.5 to 101
4 | O=C(Cc1ccccc1)N=C1SCCN1Cc1ccc(Cl)nc1 | 157 to 158
5 | Nc1ccccc1C(O)C1CC1 (configuration not stated) | 76 to 79
6 | Cc1c(CC(=O)NCCCO)cc(-c2ccc(S(C)(=O)=O)cc2)n1-c1ccc(F)cc1 | 105
7 | COc1ccccc1C=CC=CC(=O)c1cc(OC)c(OC)c(OC)c1 | 111
8 | Nc1ccc(C(=O)OCc2ccccc2)c(F)n1 | 92 to 94
9 | Cc1nc2cccc(NC(=O)CCl)c2c(=O)n1C1CCC(=O)NC1=O (configuration not stated) | 275 to 277
10 | O=C(O)c1ccc2oc(-c3ccc(C(F)(F)F)nc3)cc2c1 | > 260
11 | CCOC(=O)c1cnc2c(OC)cccc2c1Nc1cscc1OC | 176 to 178
12 | Cc1ccc(N2N=C3c4cc(C(=O)CCl)sc4CCC3CC2=O)cc1 (configuration not stated) | 169 to 171
13 | CCCCN(c1nc(NCCCCCCN)nc(N(CCCC)C2CC(C)(C)N(C)C(C)(C)C2)n1)C1CC(C)(C)N(C)C(C)(C)C1 | 125
14 | CC1(C2CCC3C4CCC5CC6OC6CC5(C)C4C(=O)CC32C)OCCO1 (configuration not stated) | 159 to 160
15 | COc1ccc(C(=O)N2CCNC2=Nc2c(Cl)cccc2Cl)cc1OC | 201 to 204
16 | COC(=O)c1nc(Cl)c(F)c(N)c1/C=C/[Si](C)(C)C | 103 to 105
17 | O=C1OC2(C=Cc3ccccc3O2)c2ccccc21 (configuration not stated) | 113 to 114
18 | COc1cccc2c(N3CCNCC3)cc(C(F)(F)F)nc12 | 130
19 | N#Cc1ccc(C(=O)c2cc(C(F)(F)F)ccc2S)cc1 | 210
20 | CCc1noc(NS(=O)(=O)c2ccccc2)c1C | 94 to 95
21 | COC(=O)c1cccc2nc(N3CCCCC3)n(Cc3ccc(-c4ccccc4C#N)cc3)c12 | 119 to 121
22 | C[C@]1(COc2ccc(N3CCS(=O)CC3)cc2)Cn2cc([N+](=O)[O-])nc2O1 | 198 to 200
23 | CS(=O)(=O)N(c1ccc(Cl)c(C(=O)Nc2cccc3c4c(oc23)CCCC4)c1Cl)S(C)(=O)=O | 237 to 238
24 | CS(=O)(=O)c1ccc(-c2nc(-c3ccc(F)cc3)c(-c3ccncc3)[nH]2)cc1 | 148 to 149
25 | O=C(Nc1cnc2c(c1)nc1n2CCCC1)c1cc2cc(C(F)(F)F)ccc2n1Cc1cccc(F)c1 | 262 to 263

Row | Compound | melting point [°C]
26 | O=C1[C@H](CC[C@H](O)c2ccc(F)cc2)[C@@H](c2ccc(OS(=O)(=O)C(F)(F)F)cc2)N1c1ccc(F)cc1 | 122
27 | O=C1CSc2ccc(S(=O)(=O)Cl)cc2N1 | 165 to 167
28 | CC1(C)NC(=O)CN1C(=O)CNC(=O)CN1CC(O)CC1=O (configuration not stated) | 227 to 229
29 | CC(=O)OCC1OC(n2cc(Cc3ccc(Br)s3)c3c(Cl)cccc32)C(OC(C)=O)C(OC(C)=O)C1OC(C)=O (configuration not stated) | 185 to 187
30 | COc1cc(CNc2c(NC(C)(C)C)c(=O)c2=O)cc(OC)c1 | 222 to 223
31 | CC(=O)OC1CSC(Oc2cccc(C(C)=O)c2)C(OC(C)=O)C1OC(C)=O (configuration not stated) | 150 to 153
32 | COCCOc1nn2c(-c3ccc(OC)cc3)nnc2c2ccccc12 | 174 to 176
33 | N#Cc1cc(C(=O)NNC(=O)c2occc2-c2ccc(OCc3ccccc3)cc2)ccc1O | 208 to 209
34 | CC(C)(C)c1ccc(C(O)CCCN2CCC(C3(O)c4ccccc4CCc4ccccc43)CC2)cc1 (configuration not stated) | 142 to 144
35 | Cc1nc(CN(C)C(=O)N[C@H](C(=O)N[C@@H](Cc2ccccc2)C[C@H](O)[C@H](Cc2ccccc2)NC(=O)OCc2cccnc2)C(C)C)cs1 | 69 to 72
36 | CC1(C)CON(Cc2ccc(NC(=O)Cc3ccccc3C(=O)O)cc2)C1=O | 164 to 166
37 | CCCCCCCCCCCCOC(=O)c1cc(N)ccc1[N+](=O)[O-] | 58 to 59
38 | COCCNC(=O)c1cccc(-c2ccc(F)c3cc(Cc4cc(F)cc(Cl)c4)sc23)c1 | 90 to 110
39 | CC(C)(CO)CNS(=O)(=O)c1ccc(NC=C2C(=O)Nc3ccc4ncsc4c32)cc1 | > 250
40 | O=C(CCl)Nc1ccc2c(c1NC(=O)Cc1ccccc1)C(=O)c1ccccc1C2=O | 184 to 185
41 | COC(=O)c1c(Oc2ccc(Cl)cc2[N+](=O)[O-])c2ccccc2n1Cc1ccccc1 | 120 to 121
42 | NS(=O)(=O)c1ccccc1OCCCl | 110
43 | CC(C)(C)N(C(=O)COc1nnc(C(F)(F)F)s1)c1ccc(Cl)cc1 | 82
44 | C1COC2(OC1)OCCCO2 | 137 to 140
45 | COC(=O)CCn1c(C(=O)O)cc2ccccc21 | 118 to 120
46 | OCc1csc(-c2ccccc2)c1 | 92 to 93
47 | COc1ccc(CCc2ccc(C(=O)O)cc2)cc1OC(C)CCCc1ccccc1 (configuration not stated) | 112
48 | Cc1nc(-n2ccc(OCc3ccccc3)cc2=O)sc1C(=O)NCc1cccnc1 | 208 to 209
49 | OC(CCN1CCCC1)c1ccc(C2CCCCC2)c(Cl)c1 (configuration not stated) | 90
50 | Cc1c(CCC2CC(OC3CCCCO3)CC(=O)O2)c2c(c(C)c1OC(=O)c1ccccc1)CC(C)(C)O2 (configuration not stated) | 139 to 140

Row | Compound | melting point [°C]
51 | O=C(O)COc1cc(Cl)ccc1C(=O)NCc1ccc(Br)cc1 | 172 to 173
52 | COc1cc2c(cc1OCc1ccccc1)CCN(Cc1cccc(Oc3ccccc3)c1)C2 | 111 to 112
53 | Oc1ccc2c(c1)CCc1c-2oc2cc(O)ccc12 | 219 to 220
54 | COc1ccc(OC)c(CC(=O)c2c(O)c3cccnc3n(-c3ccccc3)c2=O)c1 | 159 to 161
55 | O=C(Nc1cccc2c(=O)cc(-c3nnn[nH]3)oc12)c1ccc2c(c1)CC(COCc1ccccc1)O2 (configuration not stated) | 200 to 202
56 | COP(=O)(O)CC(C)=CC(N)C(=O)O (configuration not stated) | 149 to 150
57 | OCc1c(C(F)(F)F)[nH]c2ccccc12 | 106
58 | CCO[C@H]1CCN(C(=O)c2cc(-c3ccccc3)c(=O)n3c2-c2cc(Cl)ccc2CC3)C1 | 134 to 136
59 | CC12CCCc3c1n(c1ccccc31)C(=O)CC2 (configuration not stated) | 93 to 95
60 | O=C(CCCCCBr)NC1CCCCC1 | 73 to 74
61 | COC(=O)C(C)=C(C(=O)OC)C1C=CC=CC1(C)C(C(=O)OC)=C(C)C(=O)OC (configuration not stated) | 90
62 | CC(C)N(CC(O)(Cn1cncn1)c1ccc(Cl)cc1Cl)S(C)(=O)=O (configuration not stated) | 132 to 133
63 | O=[N+]([O-])c1ccc(-c2ccc(CCl)o2)cc1 | 97 to 99
64 | CCCCCCCCCCCCn1nnc(C(=NOC)C(=O)Nc2c(OC)cc(OC)cc2OC)n1 | 84 to 85
65 | CCn1ncc(C(=O)c2ccc(S(C)(=O)=O)c(C3=NOCC3)c2C)c1OCC(=O)c1ccccc1 | 177 to 179
66 | Nc1c(C(=O)c2cc(Cl)ccn2)[nH]c2cc(Cl)ccc12 | 234 to 235
67 | Cc1onc(-c2ccccc2)c1C(=O)NCCCN1CCN(c2ccc(F)cc2OCC(F)(F)F)CC1 | 112 to 135
68 | CCCC(Cl)COC(=O)c1ccc(-c2ccc(-c3ccc(C(=O)OCC(Cl)CCC)cc3)cc2)cc1 (configuration not stated) | 129 to 131
69 | CC(COc1ccc(-n2nc3c(cc2=O)CCc2ccc(F)cc2-3)cc1)N(C)C (configuration not stated) | 178 to 180
70 | CCOc1ccn2nc(SCc3ccccc3)nc2n1 | 115 to 117
71 | O=C1NCCc2ccc(OCCCCN3CCN(c4cccc5c4CCCC5)CC3)nc2N1 | 185 to 186
72 | O=S(=O)(c1ccccc1)c1c[nH]c2ccncc12 | 261 to 263
73 | CN(C(=O)c1nn(-c2ccc(Cl)cc2Cl)c(-c2ccc(Cl)cc2)c1F)N1CCCCC1 | 184
74 | O=C1CCCN1C(=O)Oc1cccc(Br)c1 | 95 to 96
75 | Cc1ccccc1NS(=O)(=O)c1ccc(N2CCNC2=O)cc1 | 209 to 210

Row | Compound | melting point [°C]
76 | N#Cc1csc(N2C(=O)C(Cc3ccccc3)NC2=S)n1 (configuration not stated) | 214 to 216
77 | O=C(O)CCc1c(-c2cc(Cl)ccc2O)c2cc(C(F)(F)F)ccc2[nH]c1=O | 255 to 258
78 | CN(C)C=NS(=O)(=O)c1cc(C(C)(C)C)cc(C=O)c1O | 182 to 183
79 | Cc1noc(-c2ccc(=O)n3c2-c2sc(-c4ccccc4)cc2SCC3)n1 | 183 to 185
80 | Cn1cc(-c2ccccc2)c(=O)c(-c2ccccc2Cl)c1 | 145
81 | CCCCCC(CC(=O)Nc1cc(C(N)=O)ccc1C(C)(C)C)c1cc(OC)c(OC)cc1OC (configuration not stated) | 166 to 167
82 | O=C(c1cc(-c2ccc(Cl)c(Cl)c2)ccn1)N(O)Cc1ccccc1 | 125 to 130
83 | O=C1N=c2ccc(Cl)cc2=N1 | 320
84 | CC(C)(O)c1onc(-c2ccccc2Cl)c1C(=O)c1nnn(Cc2cc(F)cc(C(F)(F)F)c2)c1-c1cccnc1 | 180
85 | COC(=O)c1ccc([C@H]2CCN(Cc3ccccc3)C[C@@H]2O)cc1 (racemic) | 103 to 104
86 | CC(=O)Oc1ccccc1N1CCN(CCCNC(=O)c2cccc3c(=O)c(C)c(-c4ccccc4)oc23)CC1 | 120 to 123
87 | Nc1c(Br)cnn1-c1c(Cl)ccc(Cl)c1Cl | 129
88 | O=C(CO)NC1CCC(CC2CCC(NC(=O)CO)CC2)CC1 (configuration not stated) | 149 to 151
89 | Cc1ccc(Sc2cc([N+](=O)[O-])cc3c2C(=O)OC3=O)cc1 | 180 to 182
90 | Cc1cn(Nc2ccncc2)c2ccc(OCc3ccccc3)cc12 | 168 to 170
91 | Cc1ccnc(-c2nc3ccccc3[nH]2)c1 | 228 to 229
92 | CCC1CCC(C2CCC(CC)CC2)CC1 (configuration not stated) | -6
93 | CC(C)(C)OC(=O)c1ccccc1-c1ccc(CNC(=S)NN)cc1 | > 45
94 | CCOC(=O)c1ccc(/C=C(\C)c2ccc3c(c2)C(C)(C)C(=O)CC3(C)C)cc1 | 173 to 174
95 | COC1C(O)C(CO)OC1n1cnc2c(NC3CC=CCC3c3cccs3)ncnc21 (configuration not stated) | 86 to 89
96 | S=C(Nc1cccc2c1[nH]c1ccccc12)SCc1ccccc1 | 66 to 68
97 | CC(=O)OCCN1CN(C)C(=S)N(c2ccc(C)cc2C)C1 | 80 to 83
